Source: patent US20250188040A1, “PHARMACEUTICAL COMPOSITIONS COMPRISING WRN HELICASE INHIBITORS” (Vividion Therapeutics, Inc., priority 2022, published 2025)
pIC50: −log10 of the molar value. Like-named read-outs stand apart in the source and are kept apart here.

Tests used:
SW480 cells = experiment: Cell growth assay (CellTiter-Glo 2.0), SW480 MSS cell line; details: read-out: Cell Growth Inhibition GI50 SW480
Procedure: The effects of compound on cellular viability were determined using the CellTiter-Glo® 2.0 Luminescent Cell Viability Assay (Promega, Madison, WI).
SW480 cells were seeded at 1,000 cells per well in Eagle's Minimum Essential Medium (EMEM) with 10% FBS. Both cell lines were seeded in a volume of 50 μL medium per well. […] The concentration range was adjusted as needed for compounds of different potencies. The cells treated with compounds were incubated for 5 days at 37° C. in 5% CO2. […] The plate was then read on a Clariostar plate reader (BMG Labtech, Cary, NC) in luminescence mode. The previously measured baseline cell viability was subtracted from the luminescence value of each well, and cell viability (% of DMSO) was plotted as a function of log compound concentration. The EC50 was then calculated for each compound using Dotmatics Software (San Diego, CA).

HCT 116 cells = experiment: Cell growth assay (CellTiter-Glo 2.0), HCT 116 MSI-H cell line; details: read-out: Cell Growth Inhibition GI50 HCT-116
[1] = target: hWRN(519-1227)_C-H3CV-GFP-10His (Homo sapiens, UniProt Q14191); experiment: Helicase Assay for WRN Inhibition (ATP-dependent, fluorescence based)
Procedure: Effects of compounds on WRN helicase activity were assessed with the Helicase Assay for WRN Inhibition. This is an ATP-dependent (inclusion of ATP is important and is required for this assay) fluorescence based assay using recombinant WRN and a fluorogenic DNA substrate.
WRN activity was normalized to signal from wells without WRN protein (background, 0% activity) and wells with protein treated only with DMSO (positive control, 10000 activity). For each compound the potency of inhibition (IC50) was determiined using Graphpad Prism.

[2] = HCT-116 (MSI-H), 5-day incubation
[3] = read-out: WRN Helicase IC50, 30 min preincubation with ATP, 30 min reaction
[4] = WRN Helicase IC50, 30 min preincubation with ATP, 30 min reaction

hWRN(519-1227)_C-H3CV-GFP-10His, sequence (Q14191 519-1227): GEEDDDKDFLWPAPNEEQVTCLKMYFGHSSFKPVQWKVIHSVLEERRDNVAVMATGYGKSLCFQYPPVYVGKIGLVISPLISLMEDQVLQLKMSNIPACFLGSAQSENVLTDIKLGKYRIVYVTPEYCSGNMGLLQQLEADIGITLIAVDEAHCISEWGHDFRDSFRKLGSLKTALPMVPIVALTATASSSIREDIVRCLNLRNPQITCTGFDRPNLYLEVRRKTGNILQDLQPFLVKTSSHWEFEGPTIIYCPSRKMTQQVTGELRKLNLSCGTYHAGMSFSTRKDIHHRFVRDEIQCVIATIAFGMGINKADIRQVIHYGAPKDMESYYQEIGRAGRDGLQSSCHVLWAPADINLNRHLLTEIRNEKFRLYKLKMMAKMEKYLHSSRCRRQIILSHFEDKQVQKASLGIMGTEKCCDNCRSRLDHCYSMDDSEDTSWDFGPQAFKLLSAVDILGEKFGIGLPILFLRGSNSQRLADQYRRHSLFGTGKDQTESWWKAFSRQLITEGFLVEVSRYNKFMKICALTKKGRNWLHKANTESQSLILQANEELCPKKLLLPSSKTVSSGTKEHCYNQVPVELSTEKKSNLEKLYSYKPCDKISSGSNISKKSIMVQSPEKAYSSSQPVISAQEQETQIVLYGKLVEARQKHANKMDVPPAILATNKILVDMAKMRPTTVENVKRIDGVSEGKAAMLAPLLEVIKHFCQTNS

GI50 (SW480 cells; Homo sapiens, SW480, 120 h) | GI50 (HCT 116 cells; Homo sapiens, HCT-116, 120 h) | pIC50 [1] | pIC50 [1, 4] | Compound | GI50 (SW480 cells; SW480 (MSS), 5-day incubation) | GI50 (HCT 116 cells; [2]) | pIC50 [1, 3]
 |  |  |  | 2-cyclopropyl-4-(((1R,2R)-2-fluorocyclohexyl)oxy)-N—((S,E)-4-(methylsulfonyl)but-3-en-2-yl)pyrimidine-5-carboxamide; or 2-cyclopropyl-4-(((1S,2S)-2-fluorocyclohexyl)oxy)-N—((S,E)-4-(methylsulfonyl)but-3-en-2-yl)pyrimidine-5-carboxamide [Example 149] | > 10 µM | 2.5 µM | 5.11
6.1 µM | 2.5 µM | 5.46 |  | CS(=O)(=O)C=CC1CN(C(=O)c2cnc(C3CC3)nc2Oc2ccccc2)C1 (racemic) [Example 22, (2-cyclopropyl-4-phenoxypyrimidin-5-yl)(3-(2-(methylsulfonyl)vinyl)azetidin-1-yl)methanone] |  |  | 
> 10 µM | 8.5 µM | 5.14 |  | CC1C(=CC#N)CN1C(=O)c1cnc(C2CC2)nc1Oc1ccccc1 (racemic) [Example 265, 2-(1-(2-cyclopropyl-4-phenoxypyrimidine-5-carbonyl)-2-methylazetidin-3-ylidene)acetonitrile] |  |  | 
41.4 µM | 0.11 µM |  | 6.57 | CN(C)C(=O)C[C@@H](/C=C/S(C)(=O)=O)NC(=O)c1cnc(C(C)(C)C)nc1Oc1ccccc1 [Example 71, (S,E)-2-(tert-butyl)-N-(5-(dimethylamino)-1-(methylsulfonyl)-5-oxopent-1-en-3-yl)-4-phenoxypyrimidine-5-carboxamide] |  |  | 
19.2 µM | 0.327 µM |  | 6.16 | CC(F)(F)c1ncc(C(=O)N[C@H](/C=C/S(C)(=O)=O)CC(F)F)c(Oc2ccccc2)n1 [Example 90, (S,E)-N-(5,5-difluoro-1-(methylsulfonyl)pent-1-en-3-yl)-2-(1,1-difluoroethyl)-4-phenoxypyrimidine-5-carboxamide] |  |  | 
26.1 µM | 0.252 µM |  | 6.22 | CC(F)(F)c1ncc(C(=O)N[C@H](/C=C/S(C)(=O)=O)C2CCC(F)(F)CC2)c(Oc2ccccc2)n1 [Example 91, (S,E)-N-(1-(4,4-difluorocyclohexyl)-3-(methylsulfonyl)allyl)-2-(1,1-difluoroethyl)-4-phenoxypyrimidine-5-carboxamide] |  |  | 
40 µM | 0.07 µM |  | 6.66 | CC(F)(F)c1ncc(C(=O)N[C@H](/C=C/S(C)(=O)=O)COC2CC2)c(Oc2ccccc2)n1 [Example 97, (R,E)-N-(1-cyclopropoxy-4-(methylsulfonyl)but-3-en-2-yl)-2-(1,1-difluoroethyl)-4-phenoxypyrimidine-5-carboxamide] |  |  | 
> 10 µM | 4.2 µM |  | 5.42 | CS(=O)(=O)/C=C/CNC(=O)c1cnc(C2CCCC2)nc1Oc1cccc(F)c1 [Example 111, (E)-2-cyclopentyl-4-(3-fluorophenoxy)-N-(3-(methylsulfonyl)allyl)pyrimidine-5-carboxamide] |  |  | 
4.8 µM | 4.3 µM |  | 5.31 | CS(=O)(=O)/C=C/CNC(=O)c1cnc(C2CCCC2)nc1Oc1ccc(Cl)cc1 [Example 120, (E)-4-(4-chlorophenoxy)-2-cyclopentyl-N-(3-(methylsulfonyl)allyl)pyrimidine-5-carboxamide] |  |  | 
32 µM | 0.33 µM |  | 5.72 | [2H]c1c([2H])c([2H])c(Oc2nc(C3CC3)ncc2C(=O)N[C@@H](C)/C=C/S(C)(=O)=O)c([2H])c1[2H] [Example 140] |  |  | 
13 µM | 3.4 µM |  | 4.85 | C[C@@H](/C=C/S(C)(=O)=O)NC(=O)c1cnc(C2CC2)nc1OC12CCC(CC1)C2 [Example 143, (S,E)-4-(bicyclo[2.2.1]heptan-1-yloxy)-2-cyclopropyl-N-(4-(methylsulfonyl)but-3-en-2-yl)pyrimidine-5-carboxamide] |  |  | 
40 µM | 0.36 µM |  | 5.82 | CC(F)(F)c1ncc(C(=O)N[C@H](/C=C/S(C)(=O)=O)C2CC2)c(O[C@@H]2C[C@@H]3C[C@@H]3C2)n1 [Example 158, 4-(((1R,3r,5S)-bicyclo[3.1.0]hexan-3-yl)oxy)-N—((S,E)-1-cyclopropyl-3-(methylsulfonyl)allyl)-2-(1,1-difluoroethyl)pyrimidine-5-carboxamide] |  |  | 
 |  |  |  | CC(C)(C)c1ncc(C(=O)NC/C=C/S(C)(=O)=O)c(O[C@H]2C[C@@H]3C[C@@H]3C2)n1 [Example 159, 4-(((1R,3s,5S)-bicyclo[3.1.0]hexan-3-yl)oxy)-2-(tert-butyl)-N—((E)-3-(methylsulfonyl)allyl)pyrimidine-5-carboxamide] | 12 µM | 2.5 µM | 5.16
12 µM | 0.086 µM |  | 6.43 | CN(C)c1ncc(C(=O)N[C@H](/C=C/S(C)(=O)=O)C2CC2)c(Oc2ccccc2)n1 [Example 177, (S,E)-N-(1-cyclopropyl-3-(methylsulfonyl)allyl)-2-(dimethylamino)-4-phenoxypyrimidine-5-carboxamide] |  |  | 
45 µM | 3.2 µM |  | 4.82 | CNc1ncc(C(=O)N[C@H](/C=C/S(C)(=O)=O)C2CC2)c(Oc2ccccc2)n1 [Example 178, (S,E)-N-(1-cyclopropyl-3-(methylsulfonyl)allyl)-2-(methylamino)-4-phenoxypyrimidine-5-carboxamide] |  |  | 
7 µM | 0.198 µM |  | 5.98 | CCN(CC)c1ncc(C(=O)N[C@H](/C=C/S(C)(=O)=O)C2CC2)c(Oc2ccccc2)n1 [Example 179, (S,E)-N-(1-cyclopropyl-3-(methylsulfonyl)allyl)-2-(diethylamino)-4-phenoxypyrimidine-5-carboxamide] |  |  | 
3.4 µM | 0.0582 µM |  | 6.36 | CN(c1ncc(C(=O)N[C@H](/C=C/S(C)(=O)=O)C2CC2)c(Oc2ccccc2)n1)C1CC1 [Example 180, (S,E)-2-(cyclopropyl(methyl)amino)-N-(1-cyclopropyl-3-(methylsulfonyl)allyl)-4-phenoxypyrimidine-5-carboxamide] |  |  | 
13 µM | 0.013 µM |  | 7.24 | [2H]c1c([2H])c([2H])c(Oc2nc(C(F)(F)C3CC3)ncc2C(=O)N[C@H](/C=C/S(C)(=O)=O)C2CC2)c([2H])c1[2H] [Example 229, (S,E)-N-(1-cyclopropyl-3-(methylsulfonyl)allyl)-2-(cyclopropyldifluoromethyl)-4-(phenoxy-d5)pyrimidine-5-carboxamide] |  |  | 
6.1 µM | 0.011 µM |  | 7.25 | CS(=O)(=O)/C=C/[C@@H](NC(=O)c1ccc(C(F)(F)C2CC2)nc1Oc1ccccc1)C1CC1 [Example 234, (S,E)-N-(1-cyclopropyl-3-(methylsulfonyl)allyl)-6-(cyclopropyldifluoromethyl)-2-phenoxynicotinamide] |  |  | 
4.5 µM | 0.012 µM |  | 7.38 | CS(=O)(=O)/C=C/[C@@H](NC(=O)c1cc(F)c(C(F)(F)C2CC2)nc1Oc1ccccc1)C1CC1 [Example 236, (S,E)-N-(1-cyclopropyl-3-(methylsulfonyl)allyl)-6-(cyclopropyldifluoromethyl)-5-fluoro-2-phenoxynicotinamide] |  |  | 
 |  |  |  | C=C(C#N)[C@H](C)NC(=O)c1cnc(C(C)(F)F)nc1Oc1ccccc1 [Example 273/274, (S)—N-(3-cyanobut-3-en-2-yl)-2-(1,1-difluoroethyl)-4-phenoxypyrimidine-5-carboxamide/(R)—N-(3-cyanobut-3-en-2-yl)-2-(1,1-difluoroethyl)-4-phenoxypyrimidine-5-carboxamide] | 16 µM | 0.122 µM | 
